One test concerns the target T1, PDE4D (Homo sapiens, UniProt Q08499).
T1 construct: purchased BPS Bioscience, San Diego
Description: In vitro PDE4 inhibition study, PDE4D (BPS Bioscience). Type of test: binding. Conditions: values in parentheses. On the procedure: (§1) The IC50 values of Compound 8 on PDE4 isoforms were determined by BPS Bioscience, San Diego. In brief, coat proteins (PDE4 isoforms) were added into the plate in a volume of 50 μl (2-5 ng/μl) at 4° C. overnight. The next day, Compound 8 was added to the coated plate with varying concentrations followed by addition of the corresponding biotinylated binding partner. The reaction was incubated for 2 hours at room temperature. Binding assays were performed in duplicate at each concentration and the plates were read by using Synergy 2 BioTek plate reader. The luminescence data were analyzed using the Graphpad Prism. […] Data for a reference compounds or antibodies are included as a control for inhibition. “ND” indicates the compound was not tested.

A further test addresses T2, PDE4B (Homo sapiens, UniProt Q07343).
T2 construct: purchased BPS Bioscience, San Diego
Description: In vitro PDE4 inhibition study, PDE4B (BPS Bioscience). Type of test: binding. Conditions: for inhibition at 10 µM: values in parentheses. On the procedure:
as §1

Among the data in patent US11180499B2, “Phosphodiesterase inhibitors” (BOARD OF REGENTS OF THE UNIVERSITY OF NEBRASKA, priority 2018, dated 2021) are inhibition and IC50 values, retold here.

Each structure is given as a SMILES string.

T1 sequence (Q08499 whole entry): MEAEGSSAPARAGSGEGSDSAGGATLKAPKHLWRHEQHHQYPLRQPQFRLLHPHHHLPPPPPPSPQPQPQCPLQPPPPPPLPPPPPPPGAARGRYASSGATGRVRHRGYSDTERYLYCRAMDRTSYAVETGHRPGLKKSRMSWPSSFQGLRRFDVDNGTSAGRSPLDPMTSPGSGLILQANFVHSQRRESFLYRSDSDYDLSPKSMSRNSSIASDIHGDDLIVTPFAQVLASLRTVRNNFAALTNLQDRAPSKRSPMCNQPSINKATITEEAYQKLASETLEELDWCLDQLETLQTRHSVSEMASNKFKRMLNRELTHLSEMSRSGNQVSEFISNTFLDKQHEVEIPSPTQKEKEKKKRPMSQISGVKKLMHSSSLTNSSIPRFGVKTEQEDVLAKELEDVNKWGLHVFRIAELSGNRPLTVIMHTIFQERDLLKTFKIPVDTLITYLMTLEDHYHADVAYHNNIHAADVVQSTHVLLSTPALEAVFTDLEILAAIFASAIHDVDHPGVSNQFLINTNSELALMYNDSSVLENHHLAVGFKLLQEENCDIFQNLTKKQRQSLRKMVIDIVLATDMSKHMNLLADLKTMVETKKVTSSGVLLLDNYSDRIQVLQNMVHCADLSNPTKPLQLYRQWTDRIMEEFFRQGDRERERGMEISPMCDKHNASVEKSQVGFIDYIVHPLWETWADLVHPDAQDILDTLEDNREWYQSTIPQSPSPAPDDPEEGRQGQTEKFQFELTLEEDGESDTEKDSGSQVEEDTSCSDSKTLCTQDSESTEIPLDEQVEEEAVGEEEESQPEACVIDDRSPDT
T2 sequence (Q07343 whole entry): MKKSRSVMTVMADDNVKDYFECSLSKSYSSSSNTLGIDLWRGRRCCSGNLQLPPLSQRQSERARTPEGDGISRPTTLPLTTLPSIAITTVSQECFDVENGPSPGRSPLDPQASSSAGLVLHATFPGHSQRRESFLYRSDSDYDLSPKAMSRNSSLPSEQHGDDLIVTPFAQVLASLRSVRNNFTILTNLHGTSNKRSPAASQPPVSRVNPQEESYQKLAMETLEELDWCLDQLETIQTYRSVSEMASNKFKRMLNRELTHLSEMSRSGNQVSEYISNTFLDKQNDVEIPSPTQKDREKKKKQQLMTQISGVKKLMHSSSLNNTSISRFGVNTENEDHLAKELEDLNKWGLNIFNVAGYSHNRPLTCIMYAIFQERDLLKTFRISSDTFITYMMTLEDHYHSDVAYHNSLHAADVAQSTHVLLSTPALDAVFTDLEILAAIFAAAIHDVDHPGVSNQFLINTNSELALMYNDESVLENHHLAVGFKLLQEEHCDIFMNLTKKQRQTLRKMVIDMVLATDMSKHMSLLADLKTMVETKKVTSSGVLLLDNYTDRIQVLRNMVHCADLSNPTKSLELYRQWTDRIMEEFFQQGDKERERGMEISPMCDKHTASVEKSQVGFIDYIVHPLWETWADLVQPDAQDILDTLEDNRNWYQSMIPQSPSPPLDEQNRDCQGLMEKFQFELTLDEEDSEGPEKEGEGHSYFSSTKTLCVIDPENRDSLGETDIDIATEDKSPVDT

`O=C(NC1CCC1)c1cc2cccnc2n1-c1ccc(Cl)c(Cl)c1` [Compound 2, N-cyclobutyl-1-(3,4-dichlorophenyl)-1H-pyrrolo[2,3-b]pyridine-2-carboxamide]: the inhibition (as a rule, the change of the read-out against control, counted positive when it falls) at 10 µM at PDE4D came to 24%. Further, the half-inhibitory concentration (IC50) (in general, the concentration needed to halve the response being measured) at PDE4B was found to be 1100 nM.
For `O=C(NC1CC(F)C1)c1cc2cccnc2n1-c1ccc(Cl)c(Cl)c1` (stereo not drawn) [Compound 3, 1-(3,4-Dichlorophenyl)-N-(3-fluorocyclobutyl)-1H-pyrrolo[2,3-b]pyridine-2-carboxamide] the same measures were 36% and 600 nM.
Take `O=C(NC1CC(F)(F)C1)c1cc2cccnc2n1-c1ccc(Cl)c(Cl)c1` [Compound 4, 1-(3,4-dichlorophenyl)-N-(3,3-difluorocyclobutyl)-1H-pyrrolo[2,3-b]pyridine-2-carboxamide]: the inhibition at 10 µM on PDE4D amounted to 11.6%; at PDE4B, 23%.
For `O=C(NCc1ccco1)c1cc2cccnc2n1-c1ccc(Cl)c(Cl)c1` [Compound 5, 1-(3,4-dichlorophenyl)-N-(furan-2-ylmethyl)-1H-pyrrolo[2,3-b]pyridine-2-carboxamide] the same measures were 52% and 70%.
`O=C(c1cc2cccnc2n1-c1ccc(Cl)c(Cl)c1)N1CCC1` [Compound 6, Azetidin-1-yl(1-(3,4-dichlorophenyl)-1H-pyrrolo[2,3-b]pyridin-2-yl)methanone]: the IC50 on PDE4B stood at 110 nM.
Consider `O=C(c1cc2cccnc2n1-c1ccc(Cl)c(Cl)c1)N1CC(F)C1` [Compound 7, (1-(3,4-dichlorophenyl)-1H-pyrrolo[2,3-b]pyridin-2-yl)(3-fluoroazetidin-1-yl)methanone], for which the inhibition at 10 µM at PDE4D worked out at 77%. The IC50 at PDE4B was found to be 230 nM.
On to `O=C(c1cc2cccnc2n1-c1ccc(Cl)c(Cl)c1)N1CCCC2(CCO2)C1` (stereo not drawn) [Compound 10, (1-(3,4-dichlorophenyl)-1H-pyrrolo[2,3-b]pyridin-2-yl)(1-oxa-6-azaspiro[3.5]nonan-6-yl)methanone], for which the inhibition at 10 µM on PDE4D came to 39%; at PDE4B, 73%.
For `O=C(c1cc2cccnc2n1-c1ccc(Cl)c(Cl)c1)N1CCS(=O)(=O)CC1` [Compound 11, (1-(3,4-dichlorophenyl)-1H-pyrrolo[2,3-b]pyridin-2-yl)(1,1-dioxidothiomorpholino) methanone] the same measures were 17% and 39%.
For `O=C(c1cc2cccnc2n1-c1ccc(Cl)c(Cl)c1)N1CCC2(CCC2)CC1` [Compound 12, (1-(3,4-dichlorophenyl)-1H-pyrrolo[2,3-b]pyridin-2-yl)(7-azaspiro[3.5]nonan-7-yl) methanone] the same measures were 29% and 50%.
Take `O=C(c1cc2cccnc2n1-c1ccc(Cl)c(Cl)c1)N1CCC2(CCC2)C1` [Compound 13, (1-(3,4-dichlorophenyl)-1H-pyrrolo[2,3-b]pyridin-2-yl)(6-azaspiro[3.4]octan-6-yl) methanone]: the IC50 on PDE4B is 980 nM.
Take `O=C(c1cc2cccnc2n1-c1ccc(Cl)c(Cl)c1)N1CC2(CCNCC2)C1` [Compound 15, (1-(3,4-dichlorophenyl)-1H-pyrrolo[2,3-b]pyridin-2-yl)(2,7-diazaspiro[3.5]nonan-2-yl) methanone]: the results for the inhibition at 10 µM on PDE4D and at PDE4B were 13% and 33%, respectively.
In the case of `Cc1ccc(-n2c(C(=O)NC3CCC3)cc3cccnc32)cc1Cl` [Compound 17, 1-(3-chloro-4-methylphenyl)-N-cyclobutyl-1H-pyrrolo[2,3-b]pyridine-2-carboxamide], the inhibition at 10 µM at PDE4D was 43%. The half-maximal inhibitory concentration (IC50) on PDE4B was found to be 2300 nM.
On the same counts, the results for `Cc1ccc(-n2c(C(=O)N3CC(F)C3)cc3cccnc32)cc1Cl` [Compound 20, (1-(3-chloro-4-methylphenyl)-1H-pyrrolo[2,3-b]pyridin-2-yl)(3-fluoroazetidin-1-yl) methanone] are 60% and 910 nM.
On the same counts, the results for `O=C(NC1CC1)c1cc2cccnc2n1-c1cc(F)c(Cl)c(F)c1` [Compound 21, 1-(4-chloro-3,5-difluorophenyl)-N-cyclopropyl-1H-pyrrolo[2,3-b]pyridine-2-carboxamide] are 53% and 1400 nM.
On the same counts, the results for `O=C(NC1CCC1)c1cc2cccnc2n1-c1cc(F)c(Cl)c(F)c1` [Compound 22, 1-(4-chloro-3,5-difluorophenyl)-N-cyclobutyl-1H-pyrrolo[2,3-b]pyridine-2-carboxamide] are 10.7% and 1300 nM.
On to `O=C(c1cc2cccnc2n1-c1cc(F)c(Cl)c(F)c1)N1CC(F)C1` [Compound 25, (1-(4-chloro-3,5-difluorophenyl)-1H-pyrrolo[2,3-b]pyridin-2-yl)(3-fluoroazetidin-1-yl) methanone], for which, at PDE4D, the inhibition at 10 µM came out at 62%. In addition, the IC50 at PDE4B is 210 nM.
For the compound `N#Cc1c(F)cc(-n2c(C(=O)NC3CC3)cc3cccnc32)cc1F` [Compound 26, 1-(4-cyano-3,5-difluorophenyl)-N-cyclopropyl-1H-pyrrolo[2,3-b]pyridine-2-carboxamide], the inhibition at 10 µM at PDE4D stood at 18.5%. The IC50 on PDE4B was 1400 nM.
On the same counts, the results for `N#Cc1c(F)cc(-n2c(C(=O)NC3CCC3)cc3cccnc32)cc1F` [Compound 27, 1-(4-cyano-3,5-difluorophenyl)-N-cyclobutyl-1H-pyrrolo[2,3-b]pyridine-2-carboxamide] are 16.6% and 1800 nM.
As to `N#Cc1c(F)cc(-n2c(C(=O)NC3CC(F)C3)cc3cccnc32)cc1F` (stereo not drawn) [Compound 28, 1-(4-cyano-3,5-difluorophenyl)-N-(3-fluorocyclobutyl)-1H-pyrrolo[2,3-b]pyridine-2-carboxamide], the inhibition at 10 µM at PDE4D was found to be 12.1%; at PDE4B it was 58%.
As to `N#Cc1c(F)cc(-n2c(C(=O)NC3CC(F)(F)C3)cc3cccnc32)cc1F` [Compound 29, 1-(4-cyano-3,5-difluorophenyl)-N-(3,3-difluorocyclobutyl)-1H-pyrrolo[2,3-b]pyridine-2-carboxamide], the inhibition at 10 µM amounted to 18% at PDE4D and 47% at PDE4B.
Regarding `N#Cc1c(F)cc(-n2c(C(=O)N3CC(F)C3)cc3cccnc32)cc1F` [Compound 30, 2,6-difluoro-4-(2-(3-fluoroazetidine-1-carbonyl)-1H-pyrrolo[2,3-b]pyridin-1-yl)benzonitrile], the inhibition at 10 µM at PDE4D is 66%. On PDE4B, the IC50 was determined as 430 nM.
For `O=C(NC1CC1)c1cc2cccnc2n1-c1ccc(Cl)cc1` [Compound 31, 1-(4-chlorophenyl)-N-cyclopropyl-1H-pyrrolo[2,3-b]pyridine-2-carboxamide] the same measures were 10.1% and 2900 nM.
Consider `O=C(NC1CCC1)c1cc2cccnc2n1-c1ccc(Cl)cc1` [Compound 32, 1-(4-chlorophenyl)-N-cyclobutyl-1H-pyrrolo[2,3-b]pyridine-2-carboxamide], for which the inhibition at 10 µM on PDE4D was determined as 28.2%. The IC50 at PDE4B was 5000 nM.
For the compound `O=C(NC1CC1)c1cc2cccnc2n1-c1ccc(Cl)c(F)c1` [Compound 33, 1-(4-chloro-3-fluorophenyl)-N-cyclopropyl-1H-pyrrolo[2,3-b]pyridine-2-carboxamide], the inhibition at 10 µM on PDE4D stood at 24%. Besides, the IC50 at PDE4B is 970 nM.
For `O=C(NC1CCC1)c1cc2cccnc2n1-c1ccc(Cl)c(F)c1` [Compound 34, 1-(4-chloro-3-fluorophenyl)-N-cyclobutyl-1H-pyrrolo[2,3-b]pyridine-2-carboxamide] the same measures were 39% and 1300 nM.
On the same counts, the results for `O=C(c1cc2cccnc2n1-c1ccc(Cl)c(F)c1)N1CC(F)C1` [Compound 37, (1-(4-chloro-3-fluorophenyl)-1H-pyrrolo[2,3-b]pyridin-2-yl)(3-fluoroazetidin-1-yl) methanone] are 71% and 610 nM.
As to `COc1ccc(-n2c(C(=O)N3CC(F)C3)cc3cccnc32)cc1` [Compound 38, (3-fluoroazetidin-1-yl)(1-(4-methoxyphenyl)-1H-pyrrolo[2,3-b]pyridin-2-yl)methanone], the inhibition at 10 µM at PDE4D was 37%; on PDE4B it was 67%.
In the case of `COc1ncc(-n2c(C(=O)N3CC(F)C3)cc3cccnc32)cc1Cl` [Compound 39, (1-(5-chloro-6-methoxypyridin-3-yl)-1H-pyrrolo[2,3-b]pyridin-2-yl)(3-fluoroazetidin-1-yl) methanone], the IC50 on PDE4B is 490 nM.
On the same count and under the same terms, the same measure for `O=C(c1cc2cccnc2n1-c1ccnc(F)c1)N1CC(F)C1` [Compound 41, (3-fluoroazetidin-1-yl)(1-(2-fluoropyridin-4-yl)-1H-pyrrolo[2,3-b]pyridin-2-yl)methanone]: 980 nM.
Still for that read-out and setting: the same measure for `COc1c(F)cc(-n2c(C(=O)N3CC(F)C3)cc3cccnc32)cc1F` [Compound 42, (1-(3,5-difluoro-4-methoxyphenyl)-1H-pyrrolo[2,3-b]pyridin-2-yl)(3-fluoroazetidin-1-yl) methanone]: 410 nM.
On to `O=C(c1cc2cccnc2n1Cc1ccc(Cl)c(Cl)c1)N1CC(F)C1` [Compound 43, (1-(3,4-dichlorobenzyl)-1H-pyrrolo[2,3-b]pyridin-2-yl)(3-fluoroazetidin-1-yl)methanone], for which the inhibition at 10 µM at PDE4D worked out at 58%; on PDE4B, 72%.
